# Test results reported in article PMC6399176, “Assembly of a heterodinuclear Mn/Fe cofactor is coupled to tyrosine–valine ether cross-link formation in the R2-like ligand-binding oxidase” (Journal of Biological Inorganic Chemistry, 2019).
# Molecular target: T1, R2loxI (R2-like ligand-binding oxidase, R2lox) (Geobacillus kaustophilus, UniProt Q5KW80, A171F)
# T1 construct: gene GK2771; full-length, N-terminal hexahistidine tag, pET-46 Ek/LIC, E. coli BL21(DE3), purified metal-free
# Assay: X-ray crystallography
# Settings: oxidized resting state, Mn/Fe-soaked crystal; ligand co-purified, further up in the tunnel, not at the metals; modelled as C8 acid from partial density, true identity and chain length uncertain
# T1 sequence (Q5KW80 entry or part of it A171F): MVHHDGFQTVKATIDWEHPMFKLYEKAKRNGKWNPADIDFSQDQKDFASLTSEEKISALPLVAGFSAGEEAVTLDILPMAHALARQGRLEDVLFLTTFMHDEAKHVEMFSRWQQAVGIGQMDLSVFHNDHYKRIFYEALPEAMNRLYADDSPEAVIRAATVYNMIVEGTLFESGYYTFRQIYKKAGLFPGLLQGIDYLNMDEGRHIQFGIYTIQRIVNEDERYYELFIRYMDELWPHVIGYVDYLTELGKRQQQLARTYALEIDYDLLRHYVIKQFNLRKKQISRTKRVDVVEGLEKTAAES
structure (smiles),measurement,value
CCCCCCCC(=O)O [caprylic (C8) acid],X-ray crystallography,could only reasonably be modeled (as caprylic (C8) acid) in the oxidized state
